From US8946299B2, “Use of calixarenes associated with an antibiotic in the treatment of bacterial infections” (Universite de Lorraine, priority 2011, dated 2015)

Assays:
[1] = system: Pseudomonas aeruginosa strain ATCC 27853 (wild type); assay: Chessboard technique: MICs alone and synergism of Cx1 combinations; assay type: cell-based; conditions: antibiotic used alone; second figure of the cell; n = 4
From the text: (§1) Three reference strains were used, corresponding to those studied for the MICs and MBCs (Minimum Bactericidal Concentration): Escherichia coli ATCC 25922, Staphylococcus aureus ATCC 29213, Pseudomonas aeruginosa ATCC 27853. For each of these strains 3 corresponding clinical isolates were chosen, having various antibiotic-resistance profiles, routinely used in standard fashion: • EcR1, EcR2, EcR3; • SaR1, SaR3, SaR4; • PaR2, PaR3, PaR5.
(§2) 1.3. Procedure: Chessboard Technique
(§3) The bacterial suspension is transferred to a 15 mL Falcon tube, centrifuged for 10 min at 4500 g, then the pellet is re-suspended in 1 mL of sterile distilled water. Suitable dilutions are then prepared in order to obtain a bacterial inoculum between 5·10^5 and 5·10^6 CFU/mL.
(§4) The MICs of the antibiotics were previously determined for each strain, by the method of microdilution in a liquid medium (CLSI (Clinical and Laboratory Standards Institute), 2003).
(§5) The same procedure is followed for the Cx1. […] Thus 64 ATB/Cx1 combinations are obtained.
(§6) The final volume contained in each of the wells must be 100 μL. Two controls must be present on each plate: • column 1 and 12: medium control • column 2 and 11: medium+bacteria control
(§7) Cx1: […] in the wells of […], starting with the lowest concentration.
(§8) ATB: 25 μL in the wells of rows H to A (columns 3 to 11), starting with the lowest concentration.
(§9) 50 μL in each of the wells of columns 2 to 11.
(§10) D2: Reading the Turbidity at 540 Nm.
(§11) The FIC (Fractional Inhibitory Concentration Index) value is determined by the following formula:
(§12) [formula] MICA in combination MICA alone MICB in combination MICB alone
(§13) When FIC≦0.5, there is a synergistic effect between antibiotic A and antibiotic B.
(§14) When 0.5<FIC≦1, there is an additive effect between antibiotic A and antibiotic B.
(§15) When 1<FIC≦4, there is an indifferent effect between antibiotic A and antibiotic B.
(§16) When FIC>4, there is an antagonistic effect between antibiotic A and antibiotic B.
(§17) For each strain and each antibiotic/Cx1 combination, the experiments were repeated a minimum of 3 times.

[2] = system: mucoid strain of Pseudomonas aeruginosa having a resistance to rifampicin and the trimethoprim-sulphamethoxazole combination (PaR5); assay: as above; assay type: cell-based; conditions: antibiotic used alone; second figure of the cell; n = 4
From the text: as §1, §2, §3, §4, §5, §6, §7, §8, §9, §10, §11, §12, §13, §14, §15, §16, §17

[3] = system: Pseudomonas aeruginosa strain having a resistance to β-lactams (including the carbapenems), aminoglycosides, the trimethoprim-sulphamethoxazole combination and …; assay: as above; assay type: cell-based; conditions: antibiotic used alone; second figure of the cell; n = 4
From the text: as §1, §2, §3, §4, §5, §6, §7, §8, §9, §10, §11, §12, §13, §14, §15, §16, §17

[4] = system: Pseudomonas aeruginosa strain having a resistance to β-lactams, the trimethoprim-sulphamethoxazole combination and fosfomycin (PaR2); assay type: cell-based; conditions: antibiotic used alone; second figure of the cell; n = 4
From the text: as §1, §2, §3, §4, §5, §6, §7, §8, §9, §10, §11, §12, §13, §14, §15, §16, §17

[5] = system: MRSA strain having a resistance to the aminoglycosides, fluoroquinolones, macrolides-lincosamides-synergistins and ofloxacin (SaR4); assay: Chessboard technique: MICs alone and synergism of Cx1 combinations; assay type: cell-based, Staphylococcus aureus; conditions: antibiotic used alone; second figure of the cell; n = 4
From the text: as §1, §2, §3, §4, §5, §6, §7, §8, §9, §10, §11, §12, §13, §14, §15, §16, §17

[6] = system: Staphylococcus aureus strain ATCC 29213 (wild type); assay: as above; assay type: cell-based; conditions: antibiotic used alone; second figure of the cell; n = 4
From the text: as §1, §2, §3, §4, §5, §6, §7, §8, §9, §10, §11, §12, §13, §14, §15, §16, §17

[7] = system: MRSA strain without associated resistance (SaR1); assay: as above; assay type: cell-based, Staphylococcus aureus; conditions: antibiotic used alone; second figure of the cell; n = 4
From the text: as §1, §2, §3, §4, §5, §6, §7, §8, §9, §10, §11, §12, §13, §14, §15, §16, §17

[8] = system: MRSA strain having a resistance to the aminoglycosides and fluoroquinolones (SaR3); assay: as above; assay type: cell-based, Staphylococcus aureus; conditions: antibiotic used alone; second figure of the cell; n = 4
From the text: as §1, §2, §3, §4, §5, §6, §7, §8, §9, §10, §11, §12, §13, §14, §15, §16, §17

[9] = system: EcR1: Penicillinase-Producing Escherichia coli without Associated Resistance; assay: Antibiogram by the disk diffusion technique; assay type: cell-based; conditions: for Results (diameter): Table A1, category from diameter vs Dmin Dmax; for diameter in mm: Table A2, diameter
Protocol: (§18) 5. Identification and Antibiogram 5.1 EcR1: Penicillinase-Producing Escherichia coli without Associated Resistance
(§19) The bacterial and antibiogram identification is carried out by the VITEK 2 system (bioMérieux) and by the disk diffusion technique.

[10] = system: Escherichia coli, Staphylococcus aureus and Pseudomonas aeruginosa strains; assay: Chessboard technique, summary over all strains and combinations tested; assay type: cell-based
From the text: as §1, §2
The FIC (Fractional Inhibitory Concentration Index) value is determined by the following formula: […]
as §17

[11] = system: EcR2: Cephalosporinase-Hyperproducing Escherichia coli; assay: Antibiogram by the disk diffusion technique; assay type: cell-based; conditions: Table B2; strain EcR2; diameters
Protocol: 5.2 EcR2: Cephalosporinase-Hyperproducing Escherichia coli Having an Associated Resistance to the Aminoglycosides, Quinolones and the Trimethoprim-Sulphamethoxazole Combination
The bacterial and antibiogram identification is carried out by the VITEK 1 system (bioMérieux) and by the disk diffusion technique

[12] = system: EcR1: Penicillinase-Producing Escherichia coli without Associated Resistance; assay: Antibiogram, MIC by the VITEK 2 system; assay type: cell-based; conditions: Table A1, category from MIC
Protocol: as §18, §19

[13] = system: ESBL-producing strain of Escherichia coli (EcR3); assay: Chessboard technique: MICs alone and synergism of Cx1 combinations; assay type: cell-based; conditions: antibiotic used alone; second figure of the cell; n = 4
From the text: as §1, §2, §3, §4, §5, §6, §7, §8, §9, §10, §11, §12, §13, §14, §15, §16, §17

[14] = system: cephalosporinase-hyperproducing strain of Escherichia coli (EcR2); assay: as above; assay type: cell-based; conditions: antibiotic used alone; second figure of the cell; n = 4
From the text: as §1, §2, §3, §4, §5, §6, §7, §8, §9, §10, §11, §12, §13, §14, §15, §16, §17

[15] = system: penicillinase-producing strain of Escherichia coli without associated resistance (EcR1); assay: as above; assay type: cell-based; conditions: antibiotic used alone; second figure of the cell; n = 4
From the text: as §1, §2, §3, §4, §5, §6, §7, §8, §9, §10, §11, §12, §13, §14, §15, §16, §17

[16] = system: Escherichia coli strain ATCC 25922 (wild type); assay: as above; assay type: cell-based; conditions: antibiotic used alone; second figure of the cell; n = 4
From the text: as §1, §2, §3, §4, §5, §6, §7, §8, §9, §10, §11, §12, §13, §14, §15, §16, §17

SMILES	MIC (antibiotic) [5] [µg/mL]	Initials MIC (antibiotic) [6]	MIC (antibiotic) [8]	Results (diameter) [9]	diameter in mm [9] [mm]	nature of the interaction between Cx1 and the antibiotic [10]	other results
C[C@@H](O)[C@H]1C(=O)N2C(C(=O)O)=C(SCCN=CN)C[C@H]12 [Imipenem]	2	–	–	–	–	–	MIC (antibiotic) [1]: 2 µg/mL; MIC (antibiotic) [2]: 2 µg/mL; MIC (antibiotic) [3]: 32/32 mg/L; MIC (antibiotic) [4]: 2 µg/mL
C[C@@H]1O[C@@H]1P(=O)(O)O [Fosfomycin]	128	8/8 mg/L	16 mg/L	Susceptible	24	synergism	MIC (antibiotic) [1]: 16 µg/mL; MIC (antibiotic) [2]: 16 µg/mL; MIC (antibiotic) [3]: > 64 mg/L; MIC (antibiotic) [4]: 64 µg/mL; MIC (antibiotic) [7]: 2 µg/mL
CC(=O)NC[C@H]1CN(c2ccc(N3CCOCC3)c(F)c2)C(=O)O1 [Linezolid]	2	2 mg/L	2 mg/L	–	–	–	MIC (antibiotic) [7]: 2 µg/mL
CC(=O)O[C@H]1C[C@@]2(C)[C@@H](C[C@@H](O)[C@H]3[C@@]4(C)CC[C@@H](O)[C@@H](C)[C@@H]4CC[C@@]32C)/C1=C(\CCC=C(C)C)C(=O)O [Fusidic acid]	4	2 mg/L	–	–	–	synergism	–
CO/N=C(\C(=O)N[C@@H]1C(=O)N2C(C(=O)O)=C(COC(C)=O)CS[C@H]12)c1csc(N)n1 [Cefotaxime]	–	–	–	Susceptible	–	–	diameter in mm [11]: 24 mm; Results (MIC) [12]: Susceptible; Initial MICs (antibiotic) [13]: 128 mg/L; Initial MICs (antibiotic) [14]: 4 mg/L
CO/N=C(\C(=O)N[C@@H]1C(=O)N2C(C(=O)[O-])=C(C[N+]3(C)CCCC3)CS[C@H]12)c1csc(N)n1 [Cefepime]	–	–	–	Susceptible	27	–	–
CO[C@H]1/C=C/O[C@@]2(C)Oc3c(C)c(O)c4c(O)c(c(/C=N/N5CCN(C)CC5)c(O)c4c3C2=O)NC(=O)/C(C)=C\C=C\[C@H](C)[C@H](O)[C@@H](C)[C@@H](O)[C@@H](C)[C@H](OC(C)=O)[C@@H]1C [Rifampicin]	–	–	–	–	16	–	MIC (antibiotic) [1]: 64 µg/mL; Initial MICs (antibiotic) [13]: 4 mg/L; MIC (antibiotic) [2]: 16 µg/mL; Initial MICs (antibiotic) [15]: 4 mg/L; Initial MICs (antibiotic) [16]: 4/4 mg/L; Initial MICs (antibiotic) [14]: 2/2 mg/L; MIC (antibiotic) [3]: 32/32 mg/L; MIC (antibiotic) [4]: 64 µg/mL
[H]/N=C(/N)N[C@H]1[C@H](O)[C@@H](O)[C@H](O[C@@H]2O[C@@H](C)[C@](O)(C=O)[C@H]2O[C@@H]2O[C@@H](CO)[C@H](O)[C@@H](O)[C@@H]2NC)[C@@H](N/C(N)=N\[H])[C@@H]1O [Streptomycin]	4	4 mg/L	4 mg/L	–	–	synergism	MIC (antibiotic) [7]: 4 µg/mL
CN(C)c1cc(NC(=O)CNC(C)(C)C)c(O)c2c1C[C@H]1C[C@H]3[C@H](N(C)C)C(O)=C(C(N)=O)C(=O)[C@@]3(O)C(O)=C1C2=O [Tigecycline]	–	–	–	–	–	synergism	–
C[C@H]1[C@H](NC(=O)/C(=N\OC(C)(C)C(=O)O)c2csc(N)n2)C(=O)N1S(=O)(=O)O [Aztreonam]	–	–	–	Susceptible	28	–	–
CN(C)c1ccc(O)c2c1C[C@H]1C[C@H]3[C@H](N(C)C)C(O)=C(C(N)=O)C(=O)[C@@]3(O)C(O)=C1C2=O [Minocycline]	–	–	–	–	20	–	–
C[C@H]1COc2c(N3CCN(C)CC3)c(F)cc3c(=O)c(C(=O)O)cn1c23 [Levofloxacin]	–	–	8/8 mg/L	–	–	–	–
